target: T1, NO synthase (Rattus norvegicus, UniProt P29476); assay: HTS-NOS assay (NOS assay): conversion of radioactive arginine, cation-exchanger filter plate; assay type: biochemical; conditions: 10 μM
T1 construct: the supernatant was then removed by decantation and frozen in portions at −80° C; from tissue; host or cells: rat cerebellum, 20,000 g supernatant of homogenate
Procedure: This assay enables the percentage inhibition of NO synthase by an active ingredient to be determined by measuring the NOS activity under the action of the active ingredient. NO synthase is mixed together with radioactively labelled arginine and the active ingredient under suitable conditions. After terminating the NO-forming reaction at a given time, the amount of unconverted arginine is determined directly or indirectly. A comparison of that amount with the amount of arginine that remains in a mixture of NOS and arginine without the addition of active ingredient and under otherwise identical conditions gives the % inhibition of NO synthase by the tested active ingredient. This assay can be carried out as follows:
(a) incubation of NO synthase with labelled arginine as substrate in a reaction vessel,
(b) separation of the labelled arginine from the labelled citrulline optionally formed as a product of the enzymatic reaction, at a time at which the citrulline concentration is increasing,
(c) measurement of the amount of arginine remaining in each case.
Separation is carried out over a filter plate membrane.
This NOS assay is suitable especially for “high throughput screening” (HTS) on microtitre plates (MTP).
In this HTS-NOS assay, radioactive arginine is used as substrate. The assay volume can be chosen in the range from 25 μl to 250 μl, according to the type of microtitre plate (MTP). Depending on the source of the enzyme used, co-factors and co-enzymes are added. Incubation of the batches on this microtitre plate (assay MTP) according to step (a) is carried out at room temperature and is for 5 to 60 minutes according to the enzyme activity used (units). At the end of the incubation (step (a)), the plate is placed into a cell harvester which is equipped with a MTP having a cation-exchanger membrane as the filter base (filter MTP). All batches of the assay MTP are transferred to the filter MTP and filtered off with suction over a cation-exchanger filter plate, a paper filter charged with phosphate groups. The filter MTP is then washed with buffer or water. By means of this procedure, the arginine substrate that remains is bound to the cation exchanger, while the enzymatically formed radioactive citrulline is washed out quantitatively. After drying the filter MTP and adding scintillation liquid, the bound arginine can be counted using a scintillation counter. An uninhibited NOS reaction is reflected in low radioactivity. An inhibited enzyme reaction means that the radioactive arginine has not been converted. This means that a high level of radioactivity is found on the filter.
Rat cerebella were used as the starting tissue. The animals were anaesthetized and sacrificed, the brain tissue, the cerebellum, was removed by dissection, 1 ml of enzyme preparation buffer was added per rat cerebellum (4° C.), and disintegration was carried out using a Polytron homogeniser for 1 minute at 6000 rpm, followed by centrifugation for 15 minutes at 4° C. and 20,000 g; the supernatant was then removed by decantation and frozen in portions at −80° C. (the precipitate was discarded).
96-well MTP having a well capacity of <250 μl were used.
Pipetting sequence: see Table 1.
When the pipetting operation was complete, a cover was placed on the MTP (assay MTP), and incubation was at 25° C. (room temperature (RT)) for from 5 to 60 minutes, according to the amount and activity of the enzyme used.
The contents of the assay MTP were then transferred with the aid of a 96-well cell harvester to a 96-well cation exchanger MTP (filter MTP) and filtered off with suction. This was followed by washing once with […] of H2O (from a bath).
The plate was then dried for 1 hour at 60° C. in a drying cabinet. The underside of the filter MTP was then accurately sealed from beneath with a “back seal”. 35 μl of scintillation fluid per well were then added by means of a pipette. The upper side of the plate was also sealed with a “top seal”. […]

SMILES | HTS-NOS assay: % inhibition (10 μM)
C#[N+]CCCCCCNc1c(-c2ccccc2C(F)(F)F)nc2cc(C)cc(C)n12 [Example 75, {6-[5,7-Dimethyl-2-(2-trifluorO-methyl-phenyl)-imidazo[1,2-a]pyridin-3-ylamino]-hexyl}-methylidyne-ammonium] | 56%
C#[N+]CCCCCCNc1c(C2CCCCC2)nc2cc(C)cc(C)n12 [Example 88, [6-(2-Cyclohexyl-5,7-dimethyl-imidazo[1,2-a]pyridin-3-ylamino)-hexyl]-methylidyne-ammonium] | 57%
[C-]#[N+]CCCCCCNc1c(-c2ccccc2Br)nc2cc(C)cc(C)n12 [Example 92, {6-[2-(2-Bromophenyl)-5,7-dimethyl-imidazo[1,2-a]pyridin-3-ylamino]-hexyl}-methylidyne-ammonium] | 60%

same assay, conditions: read-out: HTS-NOS assay: % inhibition (10 μM)

inhibition at 10 µM | SMILES
52% | Cc1ccn2c(NC(C)(C)CC(C)(C)C)c(-c3cccc4ccccc34)nc2c1 [Example 63, (7-Methyl-2-naphthalen-1-yl-imidazo[1,2-a]-pyridin-3-yl)-(1,1,3,3-tetramethyl-butyl)-amine]
53% | Cc1cc(C)n2c(NC(C)(C)CC(C)(C)C)c(-c3cc4ccccc4o3)nc2c1 [Example 66, (2-Benzofuran-2-yl-5,7-dimethyl-imidazo[1,2-a]pyridin-3-yl)-(1,1,3,3-tetramethyl-butyl)-amine]
52% | Cc1cccn2c(NC(C)(C)CC(C)(C)C)c(-c3cccc(Cl)c3Cl)nc12 [Example 70, [2-(2,3-Dichlorophenyl)-8-methyl-imidazo[1,2-a]pyridin-3-yl]-(1,1,3,3-tetramethyl-butyl)-amine]
58% | Cc1ccc(-c2nc3cc(C)ccn3c2NC(C)(C)CC(C)(C)C)cc1 [Example 71, (7-Methyl-2-p-tolyl-imidazo[1,2-a]pyridin-3-yl)-(1,1,3,3-tetramethyl-butyl)-amine]
53% | COc1ccccc1-c1nc2cc(C)ccn2c1Nc1c(C)cccc1C [Example 72, (2,6-Dimethyl-phenyl)-[2-(2-methoxy-phenyl)-7-methyl-imidazo[1,2-a]pyridin-3-yl]-amine]
52% | Cc1ccn2c(NC(C)(C)CC(C)(C)C)c(-c3ccc(-c4ccccc4Cl)o3)nc2c1 [Example 80, {2-[5-(2-Chlorophenyl)-furan-2-yl]-7-methyl-imidazo[1,2-a]pyridin-3-yl}-(1,1,3,3-tetramethyl-butyl)-amine]
60% | Cc1ccn2c(NC(C)(C)CC(C)(C)C)c(-c3ccc(C(=O)O)o3)nc2c1 [Example 81, 5-[7-Methyl-3-(1,1,3,3-tetramethyl-butylamino)-imidazo[1,2-a]pyridin-2-yl]-furan-2-carboxylic acid]
60% | Cc1ccn2c(NC(C)(C)CC(C)(C)C)c(-c3cccc(O)c3)nc2c1 [Example 83, 3-[7-Methyl-3-(1,1,3,3-tetramethyl-butylamino)-imidazo[1,2-a]pyridin-2-yl]-phenol]
61% | Cc1ccn2c(NC(C)(C)CC(C)(C)C)c(-c3ccc(Cl)cc3Cl)nc2c1 [Example 85, [2-(2,4-Dichlorophenyl)-7-methyl-imidazo[1,2-a]pyridin-3-yl]-(1,1,3,3-tetramethyl-butyl)-amine]
54% | Cc1ccn2c(NC(C)(C)CC(C)(C)C)c(-c3ccc(Br)o3)nc2c1 [Example 86, [2-(5-Bromofuran-2-yl)-7-methyl-imidazo[1,2-a]pyridin-3-yl]-(1,1,3,3-tetramethyl-butyl)-amine]

The next lines start with the compound.

SMILES | inhibition at 10 µM
Cc1cc(C)n2c(NC(C)(C)CC(C)(C)C)c(-c3ccc(CO)o3)nc2c1 [Example 62, {5-[5,7-Dimethyl-3-(1,1,3,3-tetramethyl-butylamino)-imidazo[1,2-a]pyridin-2-yl]-furan-2-yl}-methanol] | 55%
Cc1ccn2c(NC(C)(C)C)c(-c3ccc(CO)o3)nc2c1 [Example 64, [5-(3-Tert-butylamino-7-methyl-imidazo[1,2-a]pyridin-2-yl)-furan-2-yl]-methanol] | 52%
Cc1ccn2c(NC(C)(C)C)c(-c3ccc(C4OCCO4)o3)nc2c1 [Example 65, Tert-butyl-[2-(5-[1,3]dioxolan-2-yl-furan-2-yl)-7-methyl-imidazo[1,2-a]pyridin-3-yl]-amine] | 62%
Cc1cc(C)n2c(NC(C)(C)C)c(-c3ccc(C(=O)O)o3)nc2c1 [Example 67, 5-(3-Tert-butylamino-5,7-dimethyl-imidazo[1,2-a]pyridin-2-yl)-furan-2-carboxylic acid] | 56%
Cc1ccn2c(NC(C)(C)C)c(-c3ccco3)nc2c1 [Example 68, Tert-butyl-(2-furan-2-yl-7-methyl-imidazo[1,2-a]pyridin-3-yl)-amine] | 57%
Cc1ccn2c(NC3CCCCC3)c(C)nc2c1 [Example 69, Cyclohexyl-(2,7-dimethyl-imidazo[1,2-a]-pyridin-3-yl)-amine] | 55%
CCCCNc1c(-c2cccc(O)c2)nc2cc(C)cc(C)n12 [Example 73, 3-(3-Butylamino-5,7-dimethyl-imidazo[1,2-a]pyridin-2-yl)-phenol] | 61%
CCCCNc1c(-c2cccc(OC)c2OC)nc2cc(C)ccn12 [Example 74, Butyl-[2-(2,3-dimethoxy-phenyl)-7-methyl-imidazo[1,2-a]pyridin-3-yl]-amine] | 62%
Cc1ccn2c(NC(C)(C)C)c(-c3ccccn3)nc2c1 [Example 76, Tert-butyl-(7-methyl-2-pyridin-2-yl-imidazo[1,2-a]pyridin-3-yl)-amine] | 67%
Cc1cc(C)n2c(NC3CCCCC3)c(C3CCCCC3)nc2c1 [Example 77, Cyclohexyl-(2-cyclohexyl-5,7-dimethyl-imidazo[1,2-a]pyridin-3-yl)-amine] | 63%
Cc1cc(C)n2c(Nc3c(C)cccc3C)c(-c3cccc(Cl)c3Cl)nc2c1 [Example 78, [2-(2,3-Dichlorophenyl)-5,7-dimethyl-imidazo[1,2-a]pyridin-3-yl]-(2,6-dimethyl-phenyl)-amine] | 61%
COc1ccccc1-c1nc2cc(C)cc(C)n2c1Nc1c(C)cccc1C [Example 79, (2,6-Dimethyl-phenyl)-[2-(2-methoxy-phenyl)-5,7-dimethyl-imidazo[1,2-a]pyridin-3-yl]-amine] | 66%
COc1ccccc1-c1nc2c(C)cccn2c1NC1CCCCC1 [Example 82, Cyclohexyl-[2-(2-methoxy-phenyl)-8-methyl-imidazo[1,2-a]pyridin-3-yl]-amine] | 62%
Cc1cc(C)n2c(NC(C)(C)CC(C)(C)C)c(-c3cccc(Cl)c3Cl)nc2c1 [Example 84, [2-(2,3-Dichlorophenyl)-5,7-dimethyl-imidazo[1,2-a]pyridin-3-yl]-(1,1,3,3-tetramethyl-butyl)-amine] | 54%
Cc1cc(C)n2c(NC3CCCCC3)c(-c3ccc(C(=O)O)o3)nc2c1 [Example 87, 5-(3-Cyclohexylamino-5,7-dimethyl-imidazo[1,2-a]pyridin-2-yl)-furan-2-carboxylic acid] | 54%
Cc1cc(C)n2c(NC(C)(C)CC(C)(C)C)c(-c3ccc(Cl)cc3Cl)nc2c1 [Example 89, [2-(2,4-Dichlorophenyl)-5,7-dimethyl-imidazo[1,2-a]pyridin-3-yl]-(1,1,3,3-tetramethyl-butyl)-amine] | 68%
Cc1ccn2c(Nc3c(C)cccc3C)c(-c3cc4ccccc4o3)nc2c1 [Example 90, (2-benzofuran-2-yl-7-methyl-imidazo[1,2-a]-pyridin-3-yl)-(2,6-dimethyl-phenyl)-amine] | 53%
Cc1ccn2c(NC3CCCCC3)c(-c3ccc(C(=O)O)o3)nc2c1 [Example 91, 5-(3-Cyclohexylamino-7-methyl-imidazo[1,2-a]pyridin-2-yl)-furan-2-carboxylic acid] | 64%

From patent US20040023972A1, “Use of substituted imidazo[1,2-a]-pyridin-, -pyrimidin-and-pyrazin-3-yl-amine derivatives in the preparation of medicaments for inhibiting NOS” (Gruenenthal GmbH, priority 2000, published 2004)
